Measured values reported in ChEMBL document CHEMBL1201862, “PubChem BioAssay data set” (2004).
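Method: 48-hour compound exposure of cells in 96-well plates, five concentrations, linear interpolation of endpoints. GI50 = concentration required for 50% inhibition of growth.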 Activity calls are given as the source filed them. No stated cut-off is given here; in the data, active = GI50 up to about 1.1 µM and inactive = higher.

Columns and labels:
Assay in all cases: NCI-60 cell line screen, 48 h
[1] = system: OVCAR-5
[2] = system: SW-620
[3] = system: OVCAR-4
[4] = system: NCI-H460
[5] = system: MCF7
[6] = system: HOP-92
[7] = system: A498
[8] = system: SK-MEL-2
[9] = system: LXFL 529
[10] = system: CAKI-1
[11] = system: Hs-578T
[12] = system: 786-0
[13] = system: KM12
[14] = system: MOLT-4
[15] = system: ACHN
[16] = system: SNB-19
[17] = system: PC-3
[18] = system: EKVX
[19] = system: NCI-H522
[20] = system: LOX IMVI
[21] = system: NCI-H226
[22] = system: SF-539
[23] = system: COLO 205
[24] = system: UO-31
[25] = system: HCT-116
[26] = system: M14
[27] = system: SNB-78
[28] = system: OVCAR-8
[29] = system: HL-60
[30] = system: RPMI-8226
[31] = system: SF-295
[32] = system: HOP-62
[33] = system: HCT-15
[34] = system: RXF 631
[35] = system: DMS-114
[36] = system: UACC-257
[37] = system: UACC-62
[38] = system: XF498
[39] = system: SK-OV-3
[40] = system: SN12C
[41] = system: KM-20L2
[42] = system: BT-549
[43] = system: NCI-H23
[44] = system: K562
[45] = system: M19-MEL
[46] = system: IGROV-1
[47] = system: CCRF-CEM
[48] = system: SF-268
[49] = system: DLD-1
[50] = system: RXF 393
[51] = system: MDA-MB-435
[52] = system: DU-145
[53] = system: SNB-75
[54] = system: SK-MEL-5
[55] = system: A549
[56] = system: HCC 2998
[57] = system: U-251
[58] = system: SK-MEL-28
[59] = system: TK-10
[60] = system: DMS-273
[61] = system: NCI/ADR-RES
[62] = system: HT-29
[63] = system: Malme-3M
[64] = system: SR
[65] = system: HOP-18
[66] = system: OVCAR-3

Compound: C/C(=N\NC(=S)N1CC2CCC(CC2)C1)c1nccs1
- GI50 [1]: 143 nM (active)
- GI50 [2]: 110 nM (active)
- GI50 [3]: 261 nM (active)
- GI50 [4]: 48.3 nM (active)
- GI50 [5]: < 25.8 nM (active)
- GI50 [6]: 646 nM (active)
- GI50 [7]: 1800 nM (inactive)
- GI50 [8]: 679 nM (active)
- GI50 [9]: 20.1 nM (active)
- GI50 [10]: 634 nM (active)
- GI50 [11]: 6100 nM (inactive)
- GI50 [12]: 250 nM (active)
- GI50 [13]: 133 nM (active)
- GI50 [14]: < 19.6 nM (active)
- GI50 [15]: 300 nM (active)
- GI50 [16]: 741 nM (active)
- GI50 [17]: 228 nM (active)
- GI50 [18]: 78.9 nM (active)
- GI50 [19]: 47.1 nM (active)
- GI50 [20]: 271 nM (active)
- GI50 [21]: 479 nM (active)
- GI50 [22]: 307 nM (active)
- GI50 [23]: 14.5 nM (active)
- GI50 [24]: 129 nM (active)
- GI50 [25]: < 18.7 nM (active)
- GI50 [26]: 249 nM (active)
- GI50 [27]: 10300 nM (inactive)
- GI50 [28]: 114 nM (active)
- GI50 [29]: < 10 nM (active)
- GI50 [30]: 34.7 nM (active)
- GI50 [31]: 296 nM (active)
- GI50 [32]: 395 nM (active)
- GI50 [33]: 51.6 nM
- GI50 [34]: 518 nM (active)
- GI50 [35]: < 14.8 nM (active)
- GI50 [36]: 113 nM (active)
- GI50 [37]: 132 nM (active)
- GI50 [38]: 2300 nM (inactive)
- GI50 [39]: 809 nM (active)
- GI50 [40]: 853 nM (active)
- GI50 [41]: < 10 nM (active)
- GI50 [42]: 1070 nM (active)
- GI50 [43]: 434 nM (active)
- GI50 [44]: < 10 nM (active)
- GI50 [45]: 288 nM (active)
- GI50 [46]: 158 nM (active)
- GI50 [47]: < 10 nM (active)
- GI50 [48]: 294 nM (active)
- GI50 [49]: 42.3 nM (active)
- GI50 [50]: 336 nM (active)
- GI50 [51]: 413 nM (active)
- GI50 [52]: 255 nM (active)
- GI50 [53]: 3330 nM (inactive)
- GI50 [54]: 153 nM (active)
- GI50 [55]: 190 nM (active)
- GI50 [56]: 268 nM (active)
- GI50 [57]: 185 nM (active)
- GI50 [58]: 1100 nM (active)
- GI50 [59]: 975 nM (active)
- GI50 [60]: 127 nM (active)
- GI50 [61]: < 29.5 nM (active)
- GI50 [62]: 70 nM (active)
- GI50 [63]: 435 nM (active)
- GI50 [64]: 71.6 nM (active)
- GI50 [65]: 327 nM (active)
- GI50 [66]: 41.5 nM (active)
